Columns and labels:
Assay type in all cases: in vivo, Male C57BL/6 mice
[1] = tested on: STAT3; test: Western blot of STAT3 and phosphorylated forms in thoracic aorta after CLP; details: 6 h after CLP
Excerpt: (§1) The investigation conformed to the National Institutes of Health Guide for the Care and Use of Laboratory Animals (Eighth Edition, 2011) and was approved by the Institutional Animal Care and Use Committee of the Cincinnati Children's Hospital Medical Center. Male C57BL/6 mice were obtained from Charles River Laboratories International, Inc. (Wilmington, MA). Mice were used at 3-5 months of age to mimic the equivalent for human ranges from 20-25 years (29). Male mice only were chosen for the experimentation to avoid interference from female hormonal fluctuations in sepsis responses during the estrous cycle. Mice were housed in pathogen-free conditions under a 10-h light/14-h dark cycle with free access to food and water. Mice were anesthetized with 2.0% isoflurane in 50% oxygen and polymicrobial sepsis was induced by cecal ligation and puncture (CLP) (30). After a midline laparotomy, the cecum was exteriorized, ligated and punctured twice with a 23-G needle. The cecum was then returned into the peritoneal cavity and the abdominal incision was closed. After the procedure, mice were randomly assigned to three treatment groups: a vehicle-treated group received distilled water (200 μl/mouse) intraperitoneally (i.p.); a 100 μg colivelin-treated group received the colivelin at 100 μg/kg i.p., and a 200 μg colivelin-treated group received the colivelin at 200 μg/kg i.p. at 1 h after CLP. The intraperitoneal injection was chosen to allow for a rapid uptake and bioavailability of the peptide. All groups of mice also received fluid resuscitation (35 ml/kg normal saline solution subcutaneously) immediately after, at 3 h and 12 h after the CLP procedure. To minimize pain at the surgical incision site, lidocaine hydrochloride (1%, 4 mg/kg total dose) was applied locally immediately after the procedure. […] Mice were then sacrificed at 0, 6 and 18 h after CLP. Blood, lungs, kidneys, liver, and thoracic aortas were collected for biochemical assays.
Subcellular fractionation was performed using a centrifugation model. Tissue samples of lung and thoracic aortas were homogenized in a buffer (50 mg tissue/100 μL) containing 0.32 M sucrose, 10 mM Tris-HCl (pH 7.4), 1 mM EGTA, 2 mM EDTA, 5 mM NaN3, 10 mM β-mercaptoethanol, 2 μM leupeptin, 0.15 μM pepstatin A, 0.2 mM phenylmethanesulfonyl fluoride, 50 mM NaF, 1 mM sodium orthovanadate and 0.4 nM microcystin. Samples were centrifuged at 1000×g for 10 min at 4° C. and the supernatants collected as cytosol extracts, which also contain membrane and mitochondria. The pellets were then solubilized in Triton buffer (1% Triton X-100, 250 mM NaCl, 50 mM Tris HCl at pH 7.5, 3 mM EGTA, 3 mM EDTA, 1 mM phenylme-thanesulfonyl fluoride, 0.1 mM sodium orthovanadate, 10% glycerol, 2 mM p-nitrophenyl phosphate, 0.5% NP-40 and 46 μM aprotinin). The lysates were rocked for 1 h and subsequently centrifuged at 15,000×g for 30 min at 4° C. and the supernatant collected as nuclear extracts. The Bradford protein assay was then used for quantitative determination of total proteins.
Cytosol content of total AMPKα1/α2 and its phosphorylated form pAMPKα1/α2 (Santa Cruz Biotechnology, Dallas, TX, USA), cytosol and nuclear content of STAT3 and its phosphorylated forms pSTAT3(Tyr705) and pSTAT3(Ser727) (Cell Signaling Technology, Danvers, MA, USA) were determined by immunoblot analyses; β-actin was concomitantly probed with mouse anti-β-actin (Santa Cruz Biotechnology) as a loading control for both cytosol and nuclear proteins. Extracts were heated at 70° C. in equal volumes of 4× Protein Sample Loading Buffer. Twenty-five μg of proteins were loaded per lane on a 10% Bis-Tris gel. Proteins were separated electrophoretically and transferred to nitro-cellulose membranes. The immunoreaction was detected by near-infrared fluorescence. Membranes were blocked with Odyssey blocking buffer (LI-COR Biotechnology, Lincoln, NE, USA) and incubated with primary antibodies. […]

[2] = tested on: polymicrobial sepsis by cecal ligation and puncture (CLP); test: Long-term studies of severity of sepsis (survival, severity score, body weight) up to 7 days after CLP
Excerpt: as §1
In a separate study, another cohort of mice was subjected to the CLP procedure and was used for assessing health and moribundity conditions, and survival rate up to 7 days. Mice were divided into two treatment groups in a blind and random fashion: a vehicle-treated group received distilled water (200 μl/mouse), and a colivelin-treated group received colivelin (100 μg/kg subcutaneously) at 1 h, 3 h and 24 h after the CLP procedure. Twelve animals were included for each group. One animal was sacrificed because of unintentional extensive damage in the small intestine during surgical procedure and was excluded from the study. The subcutaneous injection was chosen to avoid further stress in the peritoneum since the animals also received intraperitoneal treatment of antibiotics. To mimic the clinical management of antimicrobial coverage, all mice received ceftriaxone (25 mg/kg) and metronidazole (12.5 mg/kg) intraperitoneally every 12 h after CLP for three days. To minimize pain, buprenorphine (0.05 mg/kg) was administered subcutaneously at 1 h after surgery and every 12 h for three days after surgery. All groups of mice also received fluid resuscitation (35 ml/kg normal saline with 5% dextrose subcutaneously) every 24 h for all the duration of the experimental period. Although some spontaneous death occurred given the acute severity of the disease, spontaneous death was not considered as endpoint for this study for ethical reasons. […]

[3] = tested on: AMPK; test: Western blot of AMPKα and pAMPKα in thoracic aorta cytosol after CLP; details: 6 h after CLP; colivelin i.p. at 1 h after CLP; vs vehicle; dose-independent
Excerpt: The investigation conformed to the National Institutes of Health Guide for the Care and Use of Laboratory Animals (Eighth Edition, 2011) and was approved by the Institutional Animal Care and Use Committee of the Cincinnati Children's Hospital Medical Center. Male C57BL/6 mice were obtained from Charles River Laboratories International, Inc. (Wilmington, MA). Mice were used at 3-5 months of age to mimic the equivalent for human ranges from 20-25 years (29). Male mice only were chosen for the experimentation to avoid interference from female hormonal fluctuations in sepsis responses during the estrous cycle. Mice were housed in pathogen-free conditions under a 10-h light/14-h dark cycle with free access to food and water. […]
(§2) Subcellular fractionation was performed using a centrifugation model. […] The Bradford protein assay was then used for quantitative determination of total proteins.
(§3) Cytosol content of total AMPKα1/α2 and its phosphorylated form pAMPKα1/α2 (Santa Cruz Biotechnology, Dallas, TX, USA), cytosol and nuclear content of STAT3 and its phosphorylated forms pSTAT3(Tyr705) and pSTAT3(Ser727) (Cell Signaling Technology, Danvers, MA, USA) were determined by immunoblot analyses; β-actin was concomitantly probed with mouse anti-β-actin (Santa Cruz Biotechnology) as a loading control for both cytosol and nuclear proteins. […] The immunoreaction was detected by near-infrared fluorescence. […]

[4] = tested on: STAT3; test: Western blot of STAT3 and phosphorylated forms in lung after CLP; details: 6 h after CLP; colivelin 100 μg/kg i.p. at 1 h after CLP; vs vehicle
Excerpt: as §1, §2, §3

[5] = colivelin i.p. at 1 h after CLP, vs vehicle

Colivelin (SALLRSIPAPAGASRLLLLTGEIDLP) was tested, and the “Nuclear expression of pSTAT3(Tyr705), thoracic aorta” value ([1]; colivelin at the highest dose) was “inhibited”, the “Cytosolic expression of pSTAT3(Ser727), thoracic aorta” value [1, 5] was “significantly reduced” and the “Cytosolic expression of pSTAT3(Tyr705), thoracic aorta” value [1, 5] was “significantly reduced”. The “Levels of total STAT3 in the cytosol, thoracic aorta” value [1, 5] was “restored”, the “Levels of total STAT3 in the nucleus, thoracic aorta” value [1, 5] was “remained unchanged” and the “Nuclear expression of pSTAT3(Ser727), thoracic aorta” value [1, 5] was “did not affect”. For the same substance, the “Health of survivor mice (severity score) at 6 and 7 days” value ([2]; 6 and 7 days after CLP, survivor mice, colivelin 100 μg/kg s.c., vs survivor vehicle-treated mice) was “significantly healthier”, the “Mice survived at 7 days” value ([2]; 7 days after CLP, colivelin 100 μg/kg s.c. at 1 h, 3 h and 24 h, with antibiotics and fluids, vehicle 6 out of 12) was 8 out of 11 and the Survival rate ([2]; 7 days after CLP, colivelin 100 μg/kg s.c. at 1 h, 3 h and 24 h, with antibiotics and fluids, vehicle 50%, not significant) was 72.6%. For the same substance, the “Body weight, later time points” value ([2]; later than two days, up to 7 days after CLP, colivelin 100 μg/kg s.c., vs vehicle) was “vehicle-treated mice maintained a significant lower weight than colivelin-treated mice”, the “Severity of signs of sepsis (severity score), all the observation period” value ([2]; up to 7 days after CLP, colivelin 100 μg/kg s.c. at 1 h, 3 h and 24 h, with antibiotics and fluids, vs vehicle) was “less severe signs of sepsis” and the “Ratio of the phosphorylated/total forms of AMPKα (p-AMPKα/AMPKα), cytosol of thoracic aortas” value [3] was “significantly increased”. For the same substance, the “Cytosolic expression of pSTAT3(Ser727), lung” value [4] was “significantly reduced”, the “Cytosolic expression of pSTAT3(Tyr705), lung” value [4] was “significantly reduced” and the “Nuclear expression of pSTAT3(Ser727), lung” value [4] was “lower than vehicle-treated mice, but not statistically significant”. The “Nuclear expression of pSTAT3(Tyr705), lung” value [4] was “lower than vehicle-treated mice, but not statistically significant”.
